Key:
[1] = Dark toxicity against human MCF7 cells assessed as growth inhibition at 0.1 uM after 24 hrs by SRB assay relative to control; type: cell-based; settings: read-out: GI
[2] = system: NCI-H460; assay: Photocytotoxicity against human NCI-H460 cells assessed as growth inhibition preincubated for 24 hrs followed by irradiation with light at 23 to 24 uW/cm'2 for 30 mins measured after 24 hrs by SRB assay; type: functional; settings: NCI-H460, light or radiation study
[3] = Dark toxicity against human HeLa cells assessed as growth inhibition at 0.1 uM after 24 hrs by SRB assay relative to control; type: cell-based; settings: read-out: GI
[4] = system: MCF7; assay: Photocytotoxicity against human MCF7 cells assessed as growth inhibition preincubated for 24 hrs followed by irradiation with light at 23 to 24 uW/cm'2 for 30 mins measured after 24 hrs by SRB assay; type: functional; settings: MCF7, light or radiation study
[5] = system: HepG2; assay: Photocytotoxicity against human HepG2 cells assessed as growth inhibition preincubated for 24 hrs followed by irradiation with light at 23 to 24 uW/cm'2 for 30 mins measured after 24 hrs by SRB assay; type: functional; settings: HepG2, light or radiation study
[6] = Dark toxicity against porcine PLP2 cells assessed as growth inhibition after 24 hrs by SRB assay; settings: Sus scrofa
[7] = Dark toxicity against human NCI-H460 cells assessed as growth inhibition at 0.1 uM after 24 hrs by SRB assay relative to control; type: cell-based; settings: read-out: GI
[8] = Dark toxicity against human HepG2 cells assessed as growth inhibition after 24 hrs by SRB assay; type: cell-based
[9] = Dark toxicity against human NCI-H460 cells assessed as growth inhibition after 24 hrs by SRB assay; type: cell-based
[10] = Dark toxicity against porcine PLP2 cells assessed as growth inhibition at 0.1 uM after 24 hrs by SRB assay relative to control; settings: Sus scrofa, read-out: GI
[11] = Dark toxicity against human HeLa cells assessed as growth inhibition after 24 hrs by SRB assay; type: cell-based
[12] = Photocytotoxicity against porcine PLP2 cells assessed as growth inhibition preincubated for 24 hrs followed by irradiation with light at 23 to 24 uW/cm'2 for 30 mins measured after 24 hrs by SRB assay; settings: Sus scrofa
[13] = Dark toxicity against human HepG2 cells assessed as growth inhibition at 0.1 uM after 24 hrs by SRB assay relative to control; type: cell-based; settings: read-out: GI
[14] = Dark toxicity against human MCF7 cells assessed as growth inhibition after 24 hrs by SRB assay; type: cell-based
[15] = system: HeLa; assay: Photocytotoxicity against human HeLa cells assessed as growth inhibition preincubated for 24 hrs followed by irradiation with light at 23 to 24 uW/cm'2 for 30 mins measured after 24 hrs by SRB assay; type: functional; settings: light or radiation study

| SMILES | inhibition at 24 h, 0.1 µM [1] [%] | GI50 [2] [nM] | inhibition at 24 h, 0.1 µM [3] [%] | GI50 [4] [nM] | GI50 [5] [nM] | GI50 at 24 h [6] [nM] | inhibition at 24 h, 0.1 µM [7] [%] | GI50 at 24 h [8] [nM] | GI50 at 24 h [9] [nM] | inhibition at 24 h, 0.1 µM [10] [%] | GI50 at 24 h [11] [nM] | GI50 at 24 h [12] [nM] | inhibition at 24 h, 0.1 µM [13] [%] | GI50 at 24 h [14] [nM] | GI50 [15] [nM] |
| --- | --- | --- | --- | --- | --- | --- | --- | --- | --- | --- | --- | --- | --- | --- | --- |
| CCN1/C(=C/C2=C(N)C(=C/c3sc4ccccc4[n+]3CC)/C2=O)Sc2ccccc21 | < 20 | 8350 | < 20 | 918 | 665 | > 10000 | < 20 | 4570 | > 10000 | < 20 | > 10000 | 4980 | < 20 | > 10000 | 288 |
| CCN1/C(=C/C2=C(N(C)CCO)C(=C/c3sc4ccccc4[n+]3CC)/C2=O)Sc2ccccc21 | < 20 | 455 | < 20 | 239 | 271 | 717 | < 20 | 7540 | 767 | < 20 | 2640 | 471 | < 20 | 737 | 273 |
| CCN1/C(=C/C2=C(N(CCO)CCO)C(=C/c3sc4ccccc4[n+]3CC)/C2=O)Sc2ccccc21 | < 20 | 404 | < 20 | 257 | 722 | 621 | < 20 | 4490 | 940 | < 20 | > 10000 | 340 | < 20 | 5340 | 88 |
| CCN1/C(=C/C2=C(NC)C(=C/c3sc4ccccc4[n+]3CC)/C2=O)Sc2ccccc21 | < 20 | 171 | < 20 | 54 | 78 | 410 | < 20 | 7080 | 507 | < 20 | 2220 | 126 | < 20 | 576 | 71 |
| CCN1/C(=C/C2=C(NCCO)C(=C/c3sc4ccccc4[n+]3CC)/C2=O)Sc2ccccc21 | < 20 | 440 | < 20 | 224 | 110 | 3730 | < 20 | 7830 | 8820 | < 20 | > 10000 | 385 | < 20 | 7360 | 97 |

Reference: ChEMBL document CHEMBL4043173, “Aminosquaraines as potential photodynamic agents: Synthesis and evaluation of in vitro cytotoxicity” (Bioorg Med Chem Lett, 2017)
